Molecular target: T1, CXCR3-A (Homo sapiens, UniProt P49682)
T1 construct: full-length human CXCR3-A (isoform A) in membrane fragments of transfected U87 and HEK-293 cells
T1 sequence (P49682 1-368): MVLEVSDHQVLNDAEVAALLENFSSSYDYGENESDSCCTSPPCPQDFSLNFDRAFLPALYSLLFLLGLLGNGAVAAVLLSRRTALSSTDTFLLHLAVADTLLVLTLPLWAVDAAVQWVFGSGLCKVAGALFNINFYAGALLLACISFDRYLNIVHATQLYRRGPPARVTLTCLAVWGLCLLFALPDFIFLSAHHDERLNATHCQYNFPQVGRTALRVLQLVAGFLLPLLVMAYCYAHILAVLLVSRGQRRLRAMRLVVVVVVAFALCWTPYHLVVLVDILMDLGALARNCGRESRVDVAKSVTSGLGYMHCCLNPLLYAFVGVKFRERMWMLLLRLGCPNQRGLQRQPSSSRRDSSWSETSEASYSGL
Experiment: plasmon waveguide resonance on captured cell membrane fragments; no spectral change with U87-CTRL fragments
Format: binding

Work on `NC(N)=NCCC[C@H](NC(=O)[C@@H]1Cc2ccccc2CN1C(=O)CCC(=O)c1ccccc1)C(=O)NCC1CCCCC1` [PS372424] yielded a Kd of 0.036 ± 0.009 µM.
